Laboratory results published in patent US9605022B2, “Macrocyclic compounds for inhibition of inhibitors of apoptosis” (Ensemble Therapeutics Corporation, priority 2012, dated 2017).

What was measured:
[1] = target: XIAP BIR3 (His-BIR3 (241-356, XIAP)) (Homo sapiens (Human), UniProt P98170); assay: XIAP-BIR3/SMAC Homogeneous Time Resolved Fluorescence (HTRF) Assay; format: binding; conditions: 1 nM N-His-BIR3, 5 nM fluorescein labeled SMAC peptide; read-out: XIAP BIR3 FRET IC50
[2] = target: XIAP BIR2-3 (His-BIR2-3 (125-356, C202A/C213G, XIAP)) (Homo sapiens (Human), UniProt P98170, C202A/C213G); assay: XIAP-BIR2-3 Dimeric SMAC Peptide Homogeneous Time Resolved Fluorescence (HTRF) Assay; format: binding; conditions: 0.5 nM N-His-BIR2-3, 20 nM fluorescein labeled dimeric SMAC peptide; read-out: XIAP BIR2-3 FRET IC50
Chain of XIAP BIR2-3 (His-BIR2-3 (125-356, C202A/C213G, XIAP)) (P98170 125-356 C202A/C213G): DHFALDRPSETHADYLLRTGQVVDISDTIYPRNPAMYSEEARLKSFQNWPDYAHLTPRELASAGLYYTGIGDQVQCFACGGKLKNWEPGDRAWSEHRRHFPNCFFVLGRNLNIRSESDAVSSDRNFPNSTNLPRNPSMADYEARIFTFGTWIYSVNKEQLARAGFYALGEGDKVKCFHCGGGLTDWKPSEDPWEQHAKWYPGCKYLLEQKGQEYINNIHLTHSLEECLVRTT

Chain of XIAP BIR3 (His-BIR3 (241-356, XIAP)) (P98170 241-356): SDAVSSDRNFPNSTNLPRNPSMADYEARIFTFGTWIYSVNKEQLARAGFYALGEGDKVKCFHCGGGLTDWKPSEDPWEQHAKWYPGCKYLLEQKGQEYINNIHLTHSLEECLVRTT

Row | Compound | IC50 [1] | IC50 [2]
1 | CN[C@@H](C)C(=O)N[C@H](C(=O)N1CC[C@@H]2[C@H]1C(=O)N[C@@H](Cc1ccc3ccccc3c1)C(=O)N[C@H](C(=O)O)Cc1ccc(cc1)OCc1cn(nn1)[C@@H]1CCN(C(=O)[C@@H](NC(=O)[C@H](C)NC)C(C)(C)C)[C@@H]1C(=O)N[C@@H](Cc1ccc3ccccc3c1)C(=O)N[C@H](c1nnn[nH]1)Cc1ccc(cc1)OCc1cn2nn1)C(C)(C)C (single isomer, unassigned) [Example 15] | 1.9 nM | 0.3 nM
2 | CN[C@@H](C)C(=O)N[C@H](C(=O)N1CC[C@@H]2[C@H]1C(=O)N[C@@H](Cc1ccc3ccccc3c1)C(=O)N[C@H](C(=O)O)Cc1ccc(cc1)OCc1cn(nn1)[C@@H]1CCN(C(=O)[C@@H](NC(=O)[C@H](C)NC)C(C)(C)C)[C@@H]1C(=O)N[C@@H](Cc1ccc3ccccc3c1)C(=O)N[C@H](c1nnn[nH]1)Cc1ccc(cc1)OCc1cn2nn1)C(C)(C)C (single isomer, unassigned) [Example 16] | 4.4 nM | 2.2 nM
3 | CN[C@@H](C)C(=O)N[C@H](C(=O)N1CC[C@@H]2[C@H]1C(=O)N[C@@H](Cc1ccc3ccccc3c1)C(=O)N[C@H](C(=O)O)Cc1ccc(cc1)OCc1cn(nn1)[C@@H]1CCN(C(=O)[C@@H](NC(=O)[C@H](C)NC)C(C)(C)C)[C@@H]1C(=O)N[C@@H](Cc1ccc3ccccc3c1)C(=O)N[C@H](C(=O)O)c1ccc(cc1)OCc1cn2nn1)C(C)(C)C [Example 1] | 4.9 nM | 1.1 nM
4 | CN[C@@H](C)C(=O)N[C@H](C(=O)N1CC[C@H]2OCc3cn(nn3)CCC[C@H](C(=O)O)NC(=O)[C@H](Cc3ccc4ccccc4c3)NC(=O)[C@@H]3[C@@H](CCN3C(=O)[C@@H](NC(=O)[C@H](C)NC)C(C)(C)C)OCc3cn(nn3)CCC[C@H](C(=O)O)NC(=O)[C@H](Cc3ccc4ccccc4c3)NC(=O)[C@H]21)C(C)(C)C [Example 3] | 1.9 nM | 0.8 nM
5 | CN[C@@H](C)C(=O)N[C@H](C(=O)N1CC[C@H]2OCc3cn(nn3)[C@H](C(=O)O)CCNC(=O)[C@H](Cc3ccc4ccccc4c3)NC(=O)[C@@H]3[C@@H](CCN3C(=O)[C@@H](NC(=O)[C@H](C)NC)C(C)(C)C)OCc3cn(nn3)[C@H](C(=O)O)CCNC(=O)[C@H](Cc3ccc4ccccc4c3)NC(=O)[C@H]21)C(C)(C)C [Example 4] | 57.8 nM | 1.6 nM
6 | CN[C@@H](C)C(=O)N[C@H](C(=O)N1CC[C@@H]2[C@H]1[C@@H](Cc1ccc3ccccc3c1)C(=O)N[C@H](C(=O)O)Cc1ccc(cc1)OCc1cn(nn1)[C@@H]1CCN(C(=O)[C@@H](NC(=O)[C@H](C)NC)C(C)(C)C)[C@@H]1C(=O)C[C@@H](Cc1ccc3ccccc3c1)C(=O)N[C@H](C(=O)OC)Cc1ccc(cc1)OCc1cn2nn1)C(C)(C)C [Example 7] | 29 nM | 6.5 nM
7 | CN[C@@H](C)C(=O)N[C@H](C(=O)N1CC[C@@H]2[C@H]1C(=O)N[C@@H](Cc1ccc3ccccc3c1)C(=O)N[C@H](C(=O)O)Cc1ccc(cc1)OCc1cn(nn1)[C@@H]1CCN(C(=O)[C@@H](NC(=O)[C@H](C)NC)C(C)(C)C)[C@@H]1C(=O)N[C@@H](Cc1ccc3ccccc3c1)C(=O)N[C@H](C(=O)NS(=O)(=O)c1ccccn1)Cc1ccc(cc1)OCc1cn2nn1)C(C)(C)C [Example 10] | 63.1 nM | 16.9 nM
8 | CN[C@@H](C)C(=O)N[C@H](C(=O)N1CC[C@@H]2[C@H]1C(=O)N[C@@H](Cc1ccc3ccccc3c1)C(=O)N[C@H](C(=O)O)Cc1ccc(cc1)OCc1cn(nn1)[C@@H]1CCN(C(=O)[C@@H](NC(=O)[C@H](C)NC)C(C)(C)C)[C@@H]1C(=O)N[C@@H](Cc1ccc3ccccc3c1)C(=O)N[C@H](C(=O)NS(=O)(=O)C1CC1)Cc1ccc(cc1)OCc1cn2nn1)C(C)(C)C [Example 11] | 10.3 nM | 1.3 nM
9 | CN[C@@H](C)C(=O)N[C@H](C(=O)N1CC[C@@H]2[C@H]1C(=O)NC(=O)C[C@@H](Cc1ccc3ccccc3c1)C(=O)N[C@H](C(=O)O)Cc1ccc(cc1)OCc1cn(nn1)[C@@H]1CCN(C(=O)[C@@H](NC(=O)[C@H](C)NC)C(C)(C)C)[C@@H]1C(=O)N[C@@H](Cc1ccc3ccccc3c1)C(=O)N[C@H](c1n[nH]c(=O)o1)Cc1ccc(cc1)OCc1cn2nn1)C(C)(C)C [Example 14] | 8.6 nM | 1.3 nM
10 | CN[C@@H](C)C(=O)N[C@H](C(=O)N1CC[C@@H]2[C@H]1C(=O)N[C@@H](Cc1ccc3ccccc3c1)C(=O)N[C@H](C(=O)O)Cc1ccc(cc1)OCc1cn(nn1)[C@@H]1CCN(C(=O)[C@@H](NC(=O)[C@H](C)NC)C(C)(C)C)[C@@H]1C(=O)N[C@@H](Cc1ccc3ccccc3c1)C(=O)N[C@H](c1nc(=S)o[nH]1)Cc1ccc(cc1)OCc1cn2nn1)C(C)(C)C [Example 17] | 3.2 nM | 0.8 nM
11 | CN[C@@H](C)C(=O)N[C@H](C(=O)N1CC[C@@H]2[C@H]1C(=O)N[C@@H](Cc1ccc3ccccc3c1)C(=O)N[C@H](C(=O)O)Cc1ccc(cc1)OCc1cn(nn1)[C@@H]1CCN(C(=O)[C@@H](NC(=O)[C@H](C)NC)C(C)(C)C)[C@@H]1C(=O)N[C@@H](Cc1ccc3ccccc3c1)C(=O)N[C@H](c1nc(=S)o[nH]1)Cc1ccc(cc1)OCc1cn2nn1)C(C)(C)C [Example 18] | – | 2.2 nM
12 | CN[C@@H](C)C(=O)N[C@H](C(=O)N1CC[C@@H]2[C@H]1C(=O)N[C@@H](Cc1ccc3ccccc3c1)C(=O)N[C@H](C(=O)O)Cc1ccc(cc1)OCc1cn(nn1)[C@@H]1CCN(C(=O)[C@@H](NC(=O)[C@H](C)NC)C(C)(C)C)[C@@H]1C(=O)N[C@@H](Cc1ccc3ccccc3c1)C(=O)N[C@H](c1nc(=O)o[nH]1)Cc1ccc(cc1)OCc1cn2nn1)C(C)(C)C [Example 19] | 2 nM | 0.4 nM
13 | CN[C@@H](C)C(=O)N[C@H](C(=O)N1CC[C@@H]2[C@H]1C(=O)N[C@@H](Cc1ccc3ccccc3c1)C(=O)N[C@H](C(=O)O)Cc1ccc(cc1)OCc1cn(nn1)[C@@H]1CCN(C(=O)[C@@H](NC(=O)[C@H](C)NC)C(C)(C)C)[C@@H]1C(=O)N[C@@H](Cc1ccc3ccccc3c1)C(=O)N[C@H](c1nc(=O)o[nH]1)Cc1ccc(cc1)OCc1cn2nn1)C(C)(C)C [Example 20] | 10.1 nM | 2.9 nM
